A short description of the data set: Concentration of saturated antagonist solutions in phosphate buffer pH 5.0. The class given is physicochemical. The note with it: phosphate buffer pH 5.0, stirred overnight, filtered. The procedure:
The determination of in vitro skin permeation was performed with saturated solutions of the respective antagonist species. Therefore an excess of the antagonist was weighed in phosphate buffer of pH 5.0 and stirred overnight. pH was monitored and, if necessary, adjusted. The cells were incubated at 32° C. Solutions were filtrated through a syringe filter (1 μm PTFE) prior to application into the diffusion cells. Concentrations of the solutions were determined.
The determination of naloxone and naloxone N-oxide in the acceptor medium of the in vitro skin permeations samples (receptor phase) was done by HPLC with UV-detection.

Consider one compound from patent US20180344726A1, “ABUSE RESISTANT TRANSDERMAL DELIVERY DEVICES AND COMPOSITIONS COMPRISING AN OPIOID AGONIST AND A NON-TRANSDERMALLY DELIVERED N-OXIDE DERIVATIVE OF AN OPIOID ANTAGONIST FOR THE TREATMENT OF PAIN” (priority 2015, published 2018).

For `C=CC[N+]1([O-])CC[C@]23c4c5ccc(O)c4O[C@H]2C(=O)CC[C@@]3(O)[C@H]1C5` (stereo partly shown) [Naloxone N-oxide], the “Concentration saturated solution c” value is 3960 µg/mL.
